Values quoted from earlier work as cited in US20080279948A1, “Treatment of Asthma and Copd Using Triple-Combination Therapy” (NXP B.V., priority 2005, published 2008).

Key:
[1] = aerosol formulation, single administration of a metered dose, asthma
[2] = controlled release formulation for pulmonary delivery

C[N+]1(C)CCC(OC(=O)C(O)(c2ccccc2)C2CCCC2)C1.[Br-] (racemic) [glycopyrrolate, 3-[(Cyclopentyl-hydroxyphenylacetyl)oxy]-1,1-dimethylpyrrolidinium bromide]
duration of bronchodilation [1]: up to 12 hours
period over which the antimuscarinic agent exerts its pharmacological effect [2]: greater than 12 hours
